Settings: Crystal

C1CSCCS1 [1,4-dithiacyclohexane]
vapor or sublimation pressure [kPa]
Settings | 296.65 K | 355.75 K | 359.45 K | 362.35 K | 367.35 K | 370.65 K | 374.05 K | 374.25 K | 376.95 K
Rate of evaporation | – | 1.067 | 1.333 | 1.893 | 2.653 | 3.246 | 3.826 | 3.906 | 4.626
Transpiration method | 0.00918 | – | – | – | – | – | – | – | –
